# Test results taken from patent US10100041B2, “Pyrazolyl substituted tetrahydropyranylsulfones” (GRÜNENTHAL GMBH, priority 2015, dated 2018).
# Target: T1, Human CaV2.2 channels (Homo sapiens, UniProt Q00975)
# T1 construct: expressed in transfected cells
# Assay: Fluorescence assay for CaV2.2 channels using potassium depolarization to induce channel opening (FLIPR, Fluo 4)
# Type: cell-based
# Details: 30 mM KCl (alternative assay buffer, inactivated channel state), HEK293 cells; for inhibition at 3 µM: HEK293, 3 μM test compound, read-out: Activity Category: %-Inhib (CaV2.2) @3 μM @30 mM KCl; for Activity Category: %-Inhib (CaV2.2) @3 μM @30 mM KCl: 3 μM test compound
# From the text: In the process, the Ca^2+ influx is quantified in the FLIPR assay with the aid of a Ca^2+-sensitive dye (type Fluo-4, Molecular Probes Europe BV, Leiden, the Netherlands) in a fluorescent imaging plate reader (FLIPR 3, Molecular Devices, Sunnyvale, USA), as described hereinafter.
# 2.1 Fluorescence Assay for CaV2.2 Channels Using Potassium Depolarization to Induce Channel Opening
# Human CaV2.2 channels were stably expressed in HEK293 cells together with alpha2-delta and beta subunits of voltage gated calcium channels. In addition, an inwardly rectifying potassium channel (Kir2.3) was stably expressed in these cells to augment control of the cell membrane potential by the concentration of extracellular potassium ions. Raise of the extracellular potassium concentration leads to depolarization of the membrane potential and thus regulates the voltage dependent state of CaV2.2 channels. For preparation, cells were seeded in black poly-D-lysine coated 96-well plates (Becton Dickinson, Biocoat 4640) in 100 μL medium [500 mL DMEM/F-12 plus Glutamax (Invitrogen 31331-093) plus 5.5 mL MEM NEAA 100× (Invitrogen 11140-035) plus 50 mL FBS decomplemented (Invitrogen 10270-106) plus 200 μg/mL Geneticin (Invitrogen 10131-027) plus 50 μg/mL Hygromycin B (Invitrogen 10687-010) plus 2 μg/mL Blasticidin (anti-b15b Invivo-Gen) plus 0.2 μg/mL Puromycin (A 11138-03)] at a cell density of 30.000 cells per well. Plates were incubated at 37° C. (5% CO2) for 20 to 23 h. On the day of experiment medium was discarded and cells were loaded with Fluo 4 by addition of 100 μL of basic assay buffer (10 mM HEPES, 1 mM KCl, 149 mM NaCl, 0.8 mM CaCl2, 1.7 mM MgCl2, 10 mM Glucose, 0.1% BSA. pH 7.4) containing 2 μM Fluo 4 (Molecular Probes; F-14201), 0.01% pluronic acid (Molecular Probes; P-6866) and 2.5 mM probenecid (Molecular Probes; P36400). Cells were incubated in the dark at 25° C. for 60 min. Then dye containing buffer was discarded and […] basic (1 mM KCl) or alternative (30 mM KCl) assay buffer was added. The alternative assay buffer contained altered concentrations of KCl (30 mM) and NaCl (120 mM) and was used in order to promote the inactivated channel state. After that 25 μL of basic or alternative assay buffer with or without test compound were added and cells were incubated again in the dark at 25° C. for 15 min. Fluorescence intensity was measured on a FLIPR 3 instrument (Molecular Devices Corp., Sunnyvale, Calif.) with excitation at 480 nm and emission at 535 nm. After continuously reading fluorescence for 30 sec, 50 μL of basic assay buffer containing 210 mM KCl (NaCl omitted) were added for depolarization. Peak fluorescent signal intensity was determined and the amplitude of the peak signal, normalized to base line, was used to measure channel inhibition by test compounds.
# T1 sequence (Q00975 whole entry): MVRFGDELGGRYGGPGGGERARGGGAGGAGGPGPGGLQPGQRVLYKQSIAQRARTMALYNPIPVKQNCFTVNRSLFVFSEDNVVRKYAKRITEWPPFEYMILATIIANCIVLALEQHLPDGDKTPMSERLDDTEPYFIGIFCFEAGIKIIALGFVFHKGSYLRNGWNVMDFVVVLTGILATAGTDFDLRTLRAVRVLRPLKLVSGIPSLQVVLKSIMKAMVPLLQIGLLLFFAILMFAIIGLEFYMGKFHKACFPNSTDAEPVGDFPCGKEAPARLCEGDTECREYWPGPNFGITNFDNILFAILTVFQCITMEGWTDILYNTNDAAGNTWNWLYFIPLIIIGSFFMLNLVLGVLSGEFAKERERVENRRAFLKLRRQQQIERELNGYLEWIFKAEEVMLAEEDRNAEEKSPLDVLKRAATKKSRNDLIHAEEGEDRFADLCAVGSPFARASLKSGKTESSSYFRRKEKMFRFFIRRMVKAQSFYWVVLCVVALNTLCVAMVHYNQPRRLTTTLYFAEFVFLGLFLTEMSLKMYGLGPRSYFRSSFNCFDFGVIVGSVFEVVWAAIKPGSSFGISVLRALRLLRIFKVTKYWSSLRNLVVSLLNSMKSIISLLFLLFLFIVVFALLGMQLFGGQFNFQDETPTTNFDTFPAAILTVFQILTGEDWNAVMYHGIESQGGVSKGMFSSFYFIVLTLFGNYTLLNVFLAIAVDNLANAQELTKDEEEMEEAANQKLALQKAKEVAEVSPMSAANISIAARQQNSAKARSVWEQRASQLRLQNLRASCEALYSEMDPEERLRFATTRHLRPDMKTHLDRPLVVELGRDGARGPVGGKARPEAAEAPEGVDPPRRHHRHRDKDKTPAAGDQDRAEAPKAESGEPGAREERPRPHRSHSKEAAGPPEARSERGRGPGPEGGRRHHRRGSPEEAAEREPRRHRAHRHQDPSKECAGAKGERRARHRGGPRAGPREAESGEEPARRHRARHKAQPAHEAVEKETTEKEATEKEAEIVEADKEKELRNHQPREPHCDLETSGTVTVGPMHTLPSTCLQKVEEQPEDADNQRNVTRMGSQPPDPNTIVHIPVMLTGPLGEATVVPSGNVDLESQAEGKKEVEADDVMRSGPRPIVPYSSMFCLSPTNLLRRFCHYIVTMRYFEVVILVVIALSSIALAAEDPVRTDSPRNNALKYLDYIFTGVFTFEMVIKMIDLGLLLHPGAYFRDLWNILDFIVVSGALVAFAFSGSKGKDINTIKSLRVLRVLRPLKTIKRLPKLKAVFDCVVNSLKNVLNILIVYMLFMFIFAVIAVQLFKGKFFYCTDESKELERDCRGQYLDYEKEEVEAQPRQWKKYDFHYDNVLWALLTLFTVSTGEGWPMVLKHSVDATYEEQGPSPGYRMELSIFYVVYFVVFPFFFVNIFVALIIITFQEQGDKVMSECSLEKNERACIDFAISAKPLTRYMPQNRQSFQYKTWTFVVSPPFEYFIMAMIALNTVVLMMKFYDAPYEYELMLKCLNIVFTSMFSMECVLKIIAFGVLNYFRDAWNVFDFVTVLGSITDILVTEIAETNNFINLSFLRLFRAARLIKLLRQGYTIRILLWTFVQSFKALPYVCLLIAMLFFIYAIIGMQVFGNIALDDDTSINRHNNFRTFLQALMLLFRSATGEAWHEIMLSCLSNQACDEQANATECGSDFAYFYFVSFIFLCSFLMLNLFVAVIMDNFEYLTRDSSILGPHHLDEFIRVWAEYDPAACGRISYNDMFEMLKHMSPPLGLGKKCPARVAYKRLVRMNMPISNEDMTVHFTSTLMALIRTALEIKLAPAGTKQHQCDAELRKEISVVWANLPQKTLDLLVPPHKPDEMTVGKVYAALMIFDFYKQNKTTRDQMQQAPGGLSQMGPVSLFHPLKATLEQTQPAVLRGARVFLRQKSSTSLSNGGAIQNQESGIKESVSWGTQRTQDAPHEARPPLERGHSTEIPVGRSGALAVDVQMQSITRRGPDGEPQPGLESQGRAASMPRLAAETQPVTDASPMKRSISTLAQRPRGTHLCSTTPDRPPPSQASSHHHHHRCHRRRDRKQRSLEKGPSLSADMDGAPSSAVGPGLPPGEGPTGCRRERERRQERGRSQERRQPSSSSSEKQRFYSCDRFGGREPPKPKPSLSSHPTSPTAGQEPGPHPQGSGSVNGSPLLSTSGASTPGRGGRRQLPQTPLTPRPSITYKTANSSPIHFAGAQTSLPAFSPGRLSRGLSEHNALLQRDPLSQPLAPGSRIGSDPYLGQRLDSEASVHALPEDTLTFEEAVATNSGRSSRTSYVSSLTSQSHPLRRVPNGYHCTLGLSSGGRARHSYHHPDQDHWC
Structure (SMILES),inhibition at 3 µM,Activity Category: %-Inhib (CaV2.2) @3 μM @30 mM KCl
"CC1(S(=O)(=O)c2cccc(C(F)(F)F)c2)CCOC(c2cc(C(F)(F)F)nn2CC(N)=O)C1 (stereo not drawn) [Example 11 cis-EN1, 2-[5-[4-Methyl-4-[[3-(trifluoromethyl)phenyl]sulfonyl]-tetrahydro-pyran-2-yl]-3-(trifluoromethyl)-1H-pyrazol-1-yl]-acetamide]",75 to 95%,
"CC1(S(=O)(=O)c2cccc(C(F)(F)F)c2)CCOC(c2cc(C(F)(F)F)nn2CCO)C1 (stereo not drawn) [Example 2 cis-EN2, 2-[5-[4-Methyl-4-[[3-(trifluoromethyl)phenyl]sulfonyl]-tetrahydro-pyran-2-yl]-3-(trifluoromethyl)-1H-pyrazol-1-yl]-ethanol]",,A (“A”: %-Inhibition >95%)
"CC1(S(=O)(=O)c2cccc(C(F)(F)F)c2)CCOC(c2cc(C(F)(F)F)nn2CCS(C)(=O)=O)C1 (stereo not drawn) [Example 19 cis-EN1, 1-(2-Methylsulfonyl-ethyl)-5-[4-methyl-4-[[3-(trifluoromethyl)phenyl]sulfonyl]-tetrahydro-pyran-2-yl]-3-(trifluoromethyl)-1H-pyrazole]",,B (“B”: %-Inhibition >75% up to ≤95%)
"CC1(S(=O)(=O)c2cccc(C(F)(F)F)c2)CCOC(c2cc(C(F)(F)F)nn2CCO)C1 (stereo not drawn) [Example 2 cis-EN1, 2-[5-[4-Methyl-4-[[3-(trifluoromethyl)phenyl]sulfonyl]-tetrahydro-pyran-2-yl]-3-(trifluoromethyl)-1H-pyrazol-1-yl]-ethanol]",75 to 95%,
"CC1(S(=O)(=O)c2cccc(C(F)(F)F)c2)CCOC(c2cc(C(F)(F)F)nn2C2COC2)C1 (stereo not drawn) [Example 17 cis-EN1, 5-[4-Methyl-4-[[3-(trifluoromethyl)phenyl]sulfonyl]-tetrahydro-pyran-2-yl]-1-(oxetan-3-yl)-3-(trifluoromethyl)-1H-pyrazole]",75 to 95%,
"CNC(=O)Cn1nc(C(F)(F)F)cc1C1CC(C)(S(=O)(=O)c2cccc(C(F)(F)F)c2)CCO1 (stereo not drawn) [Example 29 cis-EN1, N-Methyl-2-[5-[4-methyl-4-[[3-(trifluoromethyl)phenyl]sulfonyl]-tetrahydro-pyran-2-yl]-3-(trifluoromethyl)-1H-pyrazol-1-yl]-acetamide]",75 to 95%,
"CC1(S(=O)(=O)c2cccc(C(F)(F)F)c2)CCOC(c2cc(C(F)(F)F)nn2CCO)C1 (racemic) [Example 2 trans-rac, 2-[5-[4-Methyl-4-[[3-(trifluoromethyl)phenyl]sulfonyl]-tetrahydro-pyran-2-yl]-3-(trifluoromethyl)-1H-pyrazol-1-yl]-ethanol]",40 to 75%,
"COCCCn1nc(C(F)(F)F)cc1C1CC(C)(S(=O)(=O)c2cccc(C(F)(F)F)c2)CCO1 (racemic) [Example 10 cis-rac, 1-(3-Methoxypropyl)-5-(4-methyl-4-((3-(trifluoromethyl)phenyl)sulfonyl)tetrahydro-2H-pyran-2-yl)-3-(trifluoromethyl)-1H-pyrazole]",> 95%,
"CC1(S(=O)(=O)c2cccc(C(F)(F)F)c2)CCOC(c2cc(C(F)(F)F)nn2C2CS(=O)(=O)C2)C1 (stereo not drawn) [Example 20 cis-EN1, 3-[5-[4-Methyl-4-[[3-(trifluoromethyl)phenyl]sulfonyl]-tetrahydro-pyran-2-yl]-3-(trifluoromethyl)-1H-pyrazol-1-yl]-thietane-1,1-dioxide]",75 to 95%,
"CC1(S(=O)(=O)c2cccc(C(F)(F)F)c2)CCOC(c2cc(C(F)(F)F)nn2CS(C)(=O)=O)C1 (racemic) [Example 18 cis-rac, 1-(Methylsulfonyl-methyl)-5-[4-methyl-4-[[3-(trifluoromethyl)phenyl]sulfonyl]-tetrahydro-pyran-2-yl]-3-(trifluoromethyl)-1H-pyrazole]",> 95%,
"CC(C)(CO)n1nc(C(F)(F)F)cc1C1CC(C)(S(=O)(=O)c2cccc(C(F)(F)F)c2)CCO1 (stereo not drawn) [Example 6 cis-EN2, 2-Methyl-2-[5-[4-methyl-4-[[3-(trifluoromethyl)phenyl]sulfonyl]-tetrahydro-pyran-2-yl]-3-(trifluoromethyl)-1H-pyrazol-1-yl]-propan-1-ol]",,A (“A”: %-Inhibition >95%)
"CC1(S(=O)(=O)c2cccc(C(F)(F)F)c2)CCOC(c2cc(S(=O)(=O)C(F)F)nn2CCO)C1 (stereo not drawn) [Example 25 cis-EN1, 2-[3-(Difluoro-methylsulfonyl)-5-[4-methyl-4-[[3-(trifluoromethyl)phenyl]sulfonyl]-tetrahydro-pyran-2-yl]-1H-pyrazol-1-yl]-ethanol]",75 to 95%,
"CC(C)(CO)n1nc(C(F)(F)F)cc1C1CC(C)(S(=O)(=O)c2cccc(C(F)(F)F)c2)CCO1 (stereo not drawn) [Example 6 cis-EN1, 2-Methyl-2-[5-[4-methyl-4-[[3-(trifluoromethyl)phenyl]sulfonyl]-tetrahydro-pyran-2-yl]-3-(trifluoromethyl)-1H-pyrazol-1-yl]-propan-1-ol]",75 to 95%,
"CN(C)C(=O)Cn1nc(C(F)(F)F)cc1C1CC(C)(S(=O)(=O)c2cccc(C(F)(F)F)c2)CCO1 (stereo not drawn) [Example 28 cis-EN1, N,N-Dimethyl-2-[5-[4-methyl-4-[[3-(trifluoromethyl)phenyl]sulfonyl]-tetrahydro-pyran-2-yl]-3-(trifluoromethyl)-1H-pyrazol-1-yl]-acetamide]",75 to 95%,
"CC1(S(=O)(=O)c2cccc(C(F)(F)F)c2)CCOC(c2cc(C(F)(F)F)nn2CCCO)C1 (stereo not drawn) [Example 9 cis-EN1, 3-[5-[4-Methyl-4-[[3-(trifluoromethyl)phenyl]sulfonyl]-tetrahydro-pyran-2-yl]-3-(trifluoromethyl)-1H-pyrazol-1-yl]-propan-1-ol]",75 to 95%,
"COCn1nc(C(F)F)cc1C1CC(C)(S(=O)(=O)c2cccc(C(F)(F)F)c2)CCO1 (stereo not drawn) [Example 5 cis-EN2, 3-(Difluoromethyl)-1-(methoxymethyl)-5-(4-methyl-4-((3-(trifluoromethyl)phenyl)sulfonyl)tetrahydro-2H-pyran-2-yl)-1H-pyrazole]",,A (“A”: %-Inhibition >95%)
"COCn1nc(C(F)F)cc1C1CC(C)(S(=O)(=O)c2cccc(C(F)(F)F)c2)CCO1 (stereo not drawn) [Example 5 cis-EN1, 3-(Difluoromethyl)-1-(methoxymethyl)-5-(4-methyl-4-((3-(trifluoromethyl)phenyl)sulfonyl)tetrahydro-2H-pyran-2-yl)-1H-pyrazole]",75 to 95%,
"CC(CO)Cn1nc(C(F)(F)F)cc1C1CC(C)(S(=O)(=O)c2cccc(C(F)(F)F)c2)CCO1 (racemic) [Example 24 cis-rac, 2-Methyl-3-[5-[4-methyl-4-[[3-(trifluoromethyl)phenyl]sulfonyl]-tetrahydro-pyran-2-yl]-3-(trifluoromethyl)-1H-pyrazol-1-yl]-propan-1-ol]",> 95%,
"COCCn1nc(S(C)(=O)=O)cc1C1CC(C)(S(=O)(=O)c2cccc(C(F)(F)F)c2)CCO1 (racemic) [Example 23 cis-rac, 1-(2-Methoxyethyl)-5-(4-methyl-4-((3-(trifluoromethyl)phenyl)sulfonyl)tetrahydro-2H-pyran-2-yl)-3-(methylsulfonyl)-1H-pyrazole]",75 to 95%,
"CC1(S(=O)(=O)c2cccc(C(F)(F)F)c2)CCOC(c2cc(S(=O)(=O)C(F)F)nn2CCO)C1 (stereo not drawn) [Example 25 cis-EN2, 2-[3-(Difluoro-methylsulfonyl)-5-[4-methyl-4-[[3-(trifluoromethyl)phenyl]sulfonyl]-tetrahydro-pyran-2-yl]-1H-pyrazol-1-yl]-ethanol]",,A (“A”: %-Inhibition >95%)
"CC1(S(=O)(=O)c2cccc(C(F)(F)F)c2)CCOC(c2cc(S(C)(=O)=O)nn2CCO)C1 (stereo not drawn) [Example 4 cis-EN1, 2-[3-Methylsulfonyl-5-[4-methyl-4-[[3-(trifluoromethyl)phenyl]sulfonyl]-tetrahydro-pyran-2-yl]-1H-pyrazol-1-yl]-ethanol]",40 to 75%,
